Assays:
Experiment in all cases: relative viability (nuclei count vs DMSO), 5 days (fraction); higher = more cells survive
[1] = tested on: EBC-1
Procedure, shortened: (§1)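 Medians of duplicate plates are given as relative viability. That measure is the nuclei count in treated wells divided by the count in vehicle wells. Counts were taken on 4× images of lung cancer cell lines in 1536-well plates, 5 days after pin-tool dosing the day after seeding with one drug alone or a fixed anchor-drug dose plus five library-drug doses (not always all listed) in √10 steps.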

[2] = tested on: NCI-H1703
Procedure, shortened: as §1

[3] = tested on: IA-LM
Procedure, shortened: as §1

[4] = tested on: Calu-6
Procedure, shortened: as §1

[5] = tested on: NCI-H1299
Procedure, shortened: as §1

[6] = tested on: A549
Procedure, shortened: as §1

[7] = tested on: NCI-H1563
Procedure, shortened: as §1

Cc1cnc(-c2cnc(NCCNc3ccc(C#N)cn3)nc2-c2ccc(Cl)cc2Cl)[nH]1 + CC1(C)CCC(c2ccc(Cl)cc2)=C(CN2CCN(c3ccc(C(=O)NS(=O)(=O)c4ccc(N[C@H](CCN5CCOCC5)CSc5ccccc5)c(S(=O)(=O)C(F)(F)F)c4)cc3)CC2)C1 [Navitoclax] (partner 0.5 µM)
relative viability ([1]; first compound 0.08 µM): 0.399
relative viability ([1]; first compound 0.253 µM): 0.351
relative viability ([1]; first compound 0.8 µM): 0.542
relative viability ([1]; first compound 2.53 µM): 0.23
relative viability ([2]; first compound 0.08 µM): 1.15
relative viability ([2]; first compound 0.253 µM): 1.03
relative viability ([2]; first compound 0.8 µM): 1.2
relative viability ([2]; first compound 2.53 µM): 1.08
relative viability ([3]; first compound 0.08 µM): 0.78
relative viability ([3]; first compound 0.253 µM): 0.71
relative viability ([3]; first compound 0.8 µM): 0.809
relative viability ([3]; first compound 2.53 µM): 0.695
relative viability ([4]; first compound 0.08 µM): 0.826
relative viability ([4]; first compound 0.253 µM): 0.773
relative viability ([4]; first compound 0.8 µM): 0.789
relative viability ([4]; first compound 2.53 µM): 0.717
relative viability ([5]; first compound 0.08 µM): 1.04
relative viability ([5]; first compound 0.253 µM): 1.02
relative viability ([5]; first compound 0.8 µM): 1.09
relative viability ([5]; first compound 2.53 µM): 1.04
relative viability ([6]; first compound 0.08 µM): 1.23
relative viability ([6]; first compound 0.253 µM): 1.18
relative viability ([6]; first compound 0.8 µM): 1.21
relative viability ([6]; first compound 2.53 µM): 1.18

O=C(O)CCCCC(CCSCc1ccccc1)SCc1ccccc1 (centres undefined) [CPI-613] + CC(C)C[C@H](NC(=O)[C@H](Cc1ccccc1)NC(=O)c1cnccn1)B(O)O [Bortezomib] (partner 0.002 µM)
relative viability ([1]; first compound 5 µM): 0.576
relative viability ([1]; first compound 15.81 µM): 0.51
relative viability ([1]; first compound 50 µM): 0.481
relative viability ([1]; first compound 158.11 µM): 0.0828
relative viability ([1]; first compound 500 µM): 0.0663
relative viability ([2]; first compound 5 µM): 0.29
relative viability ([2]; first compound 15.81 µM): 0.375
relative viability ([2]; first compound 50 µM): 0.316
relative viability ([2]; first compound 158.11 µM): 0.174
relative viability ([2]; first compound 500 µM): 0.102
relative viability ([7]; first compound 5 µM): 0.956
relative viability ([7]; first compound 15.81 µM): 0.859
relative viability ([7]; first compound 50 µM): 0.848
relative viability ([7]; first compound 158.11 µM): 0.508
relative viability ([7]; first compound 500 µM): 0.208
relative viability ([3]; first compound 5 µM): 0.729
relative viability ([3]; first compound 15.81 µM): 0.697
relative viability ([3]; first compound 50 µM): 0.758
relative viability ([3]; first compound 158.11 µM): 0.0988
relative viability ([3]; first compound 500 µM): 0.0045
relative viability ([4]; first compound 5 µM): 0.945
relative viability ([4]; first compound 15.81 µM): 0.887
relative viability ([4]; first compound 50 µM): 0.879
relative viability ([4]; first compound 158.11 µM): 0.241
relative viability ([4]; first compound 500 µM): 0.0719
relative viability ([5]; first compound 5 µM): 1.01
relative viability ([5]; first compound 15.81 µM): 1.01
relative viability ([5]; first compound 50 µM): 1.05
relative viability ([5]; first compound 158.11 µM): 1.06
relative viability ([5]; first compound 500 µM): 1.03

O=c1[nH]c2ccccc2n1C1CCN(CCCC(c2ccc(F)cc2)c2ccc(F)cc2)CC1 [Pimozide] + CC1(C)CCC(c2ccc(Cl)cc2)=C(CN2CCN(c3ccc(C(=O)NS(=O)(=O)c4ccc(N[C@H](CCN5CCOCC5)CSc5ccccc5)c(S(=O)(=O)C(F)(F)F)c4)cc3)CC2)C1 [Navitoclax] (partner 0.5 µM)
relative viability ([1]; first compound 0.08 µM): 0.356
relative viability ([1]; first compound 0.253 µM): 0.493
relative viability ([1]; first compound 0.8 µM): 0.367
relative viability ([1]; first compound 2.53 µM): 0.309
relative viability ([1]; first compound 8 µM): 0.211
relative viability ([2]; first compound 0.08 µM): 1.05
relative viability ([2]; first compound 0.253 µM): 0.99
relative viability ([2]; first compound 0.8 µM): 0.982
relative viability ([2]; first compound 2.53 µM): 0.801
relative viability ([2]; first compound 8 µM): 0.782
relative viability ([3]; first compound 0.08 µM): 0.686
relative viability ([3]; first compound 0.253 µM): 0.723
relative viability ([3]; first compound 0.8 µM): 0.923
relative viability ([3]; first compound 2.53 µM): 0.746
relative viability ([3]; first compound 8 µM): 0.728
relative viability ([4]; first compound 0.08 µM): 0.785
relative viability ([4]; first compound 0.253 µM): 0.805
relative viability ([4]; first compound 0.8 µM): 0.844
relative viability ([4]; first compound 2.53 µM): 0.704
relative viability ([4]; first compound 8 µM): 0.774
relative viability ([5]; first compound 0.08 µM): 1.04
relative viability ([5]; first compound 0.253 µM): 0.969
relative viability ([5]; first compound 0.8 µM): 0.99
relative viability ([5]; first compound 2.53 µM): 1.03
relative viability ([5]; first compound 8 µM): 1.03
relative viability ([6]; first compound 0.08 µM): 1.28
relative viability ([6]; first compound 0.253 µM): 1.31
relative viability ([6]; first compound 0.8 µM): 1.15
relative viability ([6]; first compound 2.53 µM): 1.14
relative viability ([6]; first compound 8 µM): 0.987

From the supplement of paper PMC10307832
